Test results from the supplement of paper PMC10307832.

Legend:
Assay in all cases: relative viability (nuclei count vs DMSO), 5 days (fraction); higher = more cells survive
AGI-6780 + Dasatinib = compound: O=C(Nc1cccc(C(F)(F)F)c1)Nc1cc(S(=O)(=O)NC2CC2)ccc1-c1ccsc1 [AGI-6780] + Cc1nc(Nc2ncc(C(=O)Nc3c(C)cccc3Cl)s2)cc(N2CCN(CCO)CC2)n1 [Dasatinib] (partner 0.075 µM)
How it was run: (§1)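 Relative viability equals treated-well nuclei counts divided by vehicle-well nuclei counts. Counts came from 4× images of lung cancer cell lines grown in 1536-well plates for 5 days after pin-tool dosing on the day after seeding. Dosing used one drug alone or a fixed anchor-drug dose plus five library-drug doses (not always all listed) in √10 steps, and values are medians of duplicate plates.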

AGI-6780 + Crizotinib = compound: O=C(Nc1cccc(C(F)(F)F)c1)Nc1cc(S(=O)(=O)NC2CC2)ccc1-c1ccsc1 [AGI-6780] + C[C@@H](Oc1cc(-c2cnn(C3CCNCC3)c2)cnc1N)c1c(Cl)ccc(F)c1Cl [Crizotinib] (partner 1 µM)
How it was run: as §1

AGI-6780 + Lapatinib = compound: O=C(Nc1cccc(C(F)(F)F)c1)Nc1cc(S(=O)(=O)NC2CC2)ccc1-c1ccsc1 [AGI-6780] + CS(=O)(=O)CCNCc1ccc(-c2ccc3ncnc(Nc4ccc(OCc5cccc(F)c5)c(Cl)c4)c3c2)o1 [Lapatinib] (partner 2 µM)
How it was run: as §1

AGI-6780 + Pemetrexed = compound: O=C(Nc1cccc(C(F)(F)F)c1)Nc1cc(S(=O)(=O)NC2CC2)ccc1-c1ccsc1 [AGI-6780] + Nc1nc2[nH]cc(CCc3ccc(C(=O)N[C@@H](CCC(=O)O)C(=O)O)cc3)c2c(=O)[nH]1 [Pemetrexed] (partner 0.2 µM)
How it was run: as §1

Cell Line	relative viability (AGI-6780 + Dasatinib; first compound 0.08 µM)	relative viability (AGI-6780 + Dasatinib; first compound 0.253 µM)	relative viability (AGI-6780 + Dasatinib; first compound 0.8 µM)	relative viability (AGI-6780 + Dasatinib; first compound 2.53 µM)	relative viability (AGI-6780 + Dasatinib; first compound 8 µM)	relative viability (AGI-6780 + Crizotinib; first compound 0.08 µM)	relative viability (AGI-6780 + Crizotinib; first compound 0.253 µM)	relative viability (AGI-6780 + Crizotinib; first compound 0.8 µM)	relative viability (AGI-6780 + Crizotinib; first compound 2.53 µM)	relative viability (AGI-6780 + Crizotinib; first compound 8 µM)	relative viability (AGI-6780 + Lapatinib; first compound 0.08 µM)	relative viability (AGI-6780 + Lapatinib; first compound 0.253 µM)	relative viability (AGI-6780 + Lapatinib; first compound 0.8 µM)	relative viability (AGI-6780 + Lapatinib; first compound 2.53 µM)	relative viability (AGI-6780 + Lapatinib; first compound 8 µM)	relative viability (AGI-6780 + Pemetrexed; first compound 0.08 µM)	relative viability (AGI-6780 + Pemetrexed; first compound 0.253 µM)	relative viability (AGI-6780 + Pemetrexed; first compound 0.8 µM)	relative viability (AGI-6780 + Pemetrexed; first compound 2.53 µM)	relative viability (AGI-6780 + Pemetrexed; first compound 8 µM)
COR-L23	0.548	0.42	0.529	0.496	0.488	0.678	0.622	0.564	0.754	0.617	0.905	0.919	0.982	1.31	0.997	0.213	0.215	0.206	0.207	0.188
NCI-H460	0.495	0.583	0.468	0.444	0.541	0.912	0.963	1.19	0.759	1.06	0.872	1.03	1.03	1.07	1.11	0.0559	0.0709	0.0574	0.0584	0.0641
NCI-H2228	0.528	0.555	0.468	0.381	0.545	0.492	0.584	0.453	0.368	0.512	1.2	1.05	0.825	0.771	1.27	0.338	0.343	0.384	0.34	0.391
EKVX	0.583	0.467	0.598	0.6	0.619	0.904	0.813	1.15	0.888	1.07	0.234	0.19	0.217	0.192	0.216	0.381	0.403	0.342	0.388	0.4
HCC-78		0.388	0.433	0.364	0.351	0.378	0.337	0.422	0.353	0.343	0.66	0.702	0.821	0.485	0.992	0.957	0.859	0.908	0.85	0.927
NCI-H520	0.197	0.185	0.216	0.177	0.194	0.936	0.729	1.12	0.753	0.774	0.913	0.983	0.981	0.775	0.968	0.803	0.625	0.669	0.586	0.637
UMC-11	0.474	0.524	0.662		0.488	0.754	0.606	0.676		0.751	1.03	0.92	1.09		1.16	0.793	0.809	0.816		0.868
EMC-BAC-2	0.313	0.338	0.311	0.273	0.334	0.791	0.728	0.763	0.668	0.78	0.919	0.929	0.878	0.725	0.94		0.434	0.43	0.55	0.44
NCI-H1755	0.479	0.502	0.456	0.351	0.422	0.878	0.818	1	0.79	0.886	1.03	0.959	0.984	0.936	1.04	0.496	0.495	0.475	0.435	0.402
NCI-H647	0.186	0.202	0.23	0.175	0.448	1.1	1.13	1.38	0.96	1.15	0.919	1.18	1.06	0.955	1.3	0.173	0.192	0.119	0.2	0.178
H3255	0.349	0.374	0.456	0.353	0.333	0.884	0.848	0.997	0.84	0.921	0.222	0.275	0.248	0.204	0.263	0.554	0.549	0.636	0.629	0.581
NCI-H596	0.582	0.583	0.624		0.665	0.928	1	0.912	0.773	1.03	0.841	1.13	1.05	0.886	1.08	0.456	0.492	0.472	0.469	0.479
NCI-H1915	0.358	0.333	0.344	0.249	0.304	0.885	0.88	0.902	0.857	0.835	0.96	0.989	0.988	0.982	0.977	0.478	0.491	0.552	0.538	0.452
NCI-H2009	0.27	0.309	0.258	0.312	0.32	1.02	1.09	0.976	1.01	1.05	0.952	0.889	0.976	0.917	0.959	1.14	1.1	1.01	1.14	0.957
NCI-H650	0.459	0.528	0.443	0.399	0.426	0.833	0.673	0.737	0.601	0.641	0.922	1.07	1.17	0.859	1.05	0.935	0.943	0.993	0.893	0.945
NCI-H1650	0.337	0.371	0.38	0.274	0.366	0.966	1.01	1.14	0.938	1.02	0.739	0.777	1.16	0.789	0.874	0.4	0.367	0.366	0.418	0.358
NCI-H1355	0.771	0.712	0.771	0.518	0.776	1.04	1.02	1.08	0.943	1.01	1.03	1.04	0.944	0.685	0.96	1.07	1.17	1.02	0.937	1

Cell Line	relative viability (AGI-6780 + Dasatinib; first compound 0.08 µM)	relative viability (AGI-6780 + Dasatinib; first compound 0.253 µM)	relative viability (AGI-6780 + Dasatinib; first compound 0.8 µM)	relative viability (AGI-6780 + Dasatinib; first compound 2.53 µM)	relative viability (AGI-6780 + Dasatinib; first compound 8 µM)	relative viability (AGI-6780 + Crizotinib; first compound 0.08 µM)	relative viability (AGI-6780 + Crizotinib; first compound 0.253 µM)	relative viability (AGI-6780 + Crizotinib; first compound 0.8 µM)	relative viability (AGI-6780 + Crizotinib; first compound 2.53 µM)	relative viability (AGI-6780 + Crizotinib; first compound 8 µM)	relative viability (AGI-6780 + Lapatinib; first compound 0.08 µM)	relative viability (AGI-6780 + Lapatinib; first compound 0.253 µM)	relative viability (AGI-6780 + Lapatinib; first compound 0.8 µM)	relative viability (AGI-6780 + Lapatinib; first compound 2.53 µM)	relative viability (AGI-6780 + Lapatinib; first compound 8 µM)	relative viability (AGI-6780 + Pemetrexed; first compound 0.08 µM)	relative viability (AGI-6780 + Pemetrexed; first compound 0.253 µM)	relative viability (AGI-6780 + Pemetrexed; first compound 0.8 µM)	relative viability (AGI-6780 + Pemetrexed; first compound 2.53 µM)	relative viability (AGI-6780 + Pemetrexed; first compound 8 µM)
HOP-62	0.713	0.642	0.633	0.634	0.63	0.857	0.919	0.971	0.731	0.502	0.974	0.888	0.965	1.06	1.06	0.336	0.303	0.378	0.346	0.385
NCI-H23	0.922	0.701	0.752	0.378	0.735	0.56	0.633	0.629	0.539	0.544	1.17	1.26	1.45	0.931	1.15	0.568	0.733	0.758	0.787	0.799
NCI-H2170	0.585	0.713	0.579	0.499	0.59	1.28	1.14	1.36		1.24	0.291	0.281	0.272		0.257	0.285	0.267	0.289		0.272
EPLC-272H		0.423	0.292	0.285	0.365	0.888	0.929	0.841	0.714	0.791	0.921	0.949	0.881	0.747	1.11	0.302	0.4	0.27	0.398	0.272
NCI-H2347	0.323	0.342	0.276	0.307	0.317	0.733	0.738	0.59	0.663	0.801	0.904	0.874	0.688	0.879	0.93	0.44	0.439	0.428	0.448	0.454
SW 1573	0.467	0.516	0.442		0.531	0.786	0.883	0.912	0.681	0.815	1.3	1.29	1.08	0.957	1.06	0.866	0.787	0.921		0.874
NCI-H358	0.184	0.175	0.17	0.151	0.197	0.76	0.566	0.573	0.528	0.471	0.517	0.6	0.473	0.375	0.417	0.145	0.182	0.148	0.173	0.166
HCC-366	0.678	0.608	0.684	0.245	0.556	0.606	0.56	0.445	0.335	0.374	1.05	1.08	1.01	1.1	1.05	0.177	0.174	0.157	0.259	0.168
NCI-H3122	0.86	0.904	0.911	0.669	0.955	0.252	0.291	0.301	0.252	0.293	1.02	0.987	1.09	1.02	1.08	0.209	0.199	0.191	0.195	0.185
COR-L 105	0.345	0.349	0.397	0.369	0.378	0.899	0.738	1.01	0.708	0.848	0.358	0.357	0.437	0.343	0.324	1.26	0.965	1.17	0.923	1.08
NCI-H1792		0.859	0.663	0.719	0.728	0.836	0.993	1.07	0.931	0.989	0.805	0.893	1.14	0.883	0.914	0.993	0.842	0.79		0.844
NCI-H1563	0.51	0.51	0.459	0.459	0.459	0.943	0.827	0.828	0.858	0.903	1.03	0.924	0.987	0.881	0.903	0.712	0.822	0.748	0.655	0.518
NCI-H2087	0.843	0.866	0.888	0.852	0.838	0.869	0.922	0.851	0.86	0.919	1.04	1.05	0.926	0.976	0.98	0.702	0.637	0.696	0.636	0.754
LC-2-ad	0.604	0.573	0.677	0.482	0.515	0.579	0.491	0.467	0.412	0.508	0.943	1.04	0.979	1.02	0.958	0.278	0.254	0.255	0.253	0.284
HARA	0.229	0.278	0.259	0.179	0.233	1.05	1.08	0.894	1.01	1.07	0.872	0.825	0.613	0.681	0.707	0.248	0.266	0.199	0.271	0.239
LCLC-97TM1	0.881	0.887	0.868	0.654	0.817	0.417	0.48	0.668		0.344	0.803	1.61	1.14		1	0.173	0.157	0.192	0.156	0.192
